According to patent publication US20190054067A1, “COMPOSITIONS AND METHODS FOR TREATING COMPULSIVE-LIKE BEHAVIOR IN A SUBJECT” (UNIVERSITY OF THE SCIENCES, priority 2016, published 2019):

Columns and labels:
[1] = test system: compulsive-like BIG male mice; test: compulsive-like nest building (NB) behavior; assay type: in vivo, Mus musculus; conditions: for overall nesting scores vs control (saline) / overall nesting scores vs control: 0-24 h; for suppression of NB vs control: chronic (daily s.c., tested day 30); for overall nesting scores vs control: chronic; for effect on NB (ANOVA over dose groups): chronic, 2, 4 and 6 mg/kg groups
Procedure: (§1) Compulsive-like BIG male mice, Mus musculus, were raised on wood shavings in polypropylene cages (27×17×12 cm) under controlled temperature (22±1° C.) and light (12:12 light-dark cycle) with free access to food (Purina Mills, Lab Diet Mouse Diet #5015, St. Louis, Mo.) and water. Animals were approximately 12-16 weeks of age at the start of each experiment.
(§2) Deformylflustrabromine hydrochloride (dFBr; Abcam Biochemicals) was dissolved in physiological saline (pH=6.7) to yield final doses of 2.0 mg/kg (0.27 mg/mL), 4 mg/kg (0.53 mg/mL) and 6 mg/kg (0.80 mg/mL). Saline was used as a vehicle control (0 mg/kg). A mouse of 40 g received an injection volume of 0.3 mL. Injection volumes were proportionally adjusted according to the body weight of individual animals.
Acute Study: Male BIG mice were divided into four treatment groups comprising vehicle (sterile saline), 2 mg/kg, 4 mg/kg and 6 mg/kg. Animals in each group (n=12 per group) were tested for nesting on day 1, MB on day 3 and open field (OF) on day 5. On the first day of testing animals randomly received dFBr or vehicle subcutaneously and in subsequent tests received the same dose. Days 2 and 4 were employed to avoid any residual effects of dFBr from previous administration. For nesting, data were collected after 1, 2, 3, 4, 5 and 24 h due to the progressive nature of the NB (The BIG mice typically get excited and indulge in excessive and repetitive NB when introduced to cotton for the first 3-4 h in the light cycle. This excessive and repetitive nesting activity resumes again in the dark cycle). MB and OF behavior was performed 2 h after dFBr administration (FIG. 1).
Chronic Study; Since the foundation of the animal model was established through effective reversal of compulsive-like NB and MB behaviors by chronic fluoxetine treatment, a chronic regimen was also conducted to establish the sustained and long term effects of dFBr on NB and MB. Animals belonging to 0, 2, 4 and 6 mg/kg dose group (n=12 per group) received single subcutaneous injection of dFBr or saline daily for 32 days. NB, MB and OF behaviors were assessed in the final week (weeks 5) after dFBr administration (NB after 1, 2, 3, 4, 5 and 24 h, and MB after 2 h of drug injection). NB was performed on day 30, MB on day 31 and OF on day 32 (FIG. 1).
Nest-building behavior was performed to assess compulsive-like behavior in the mice. For both acute and chronic studies, immediately following subcutaneous injection of dFBr, compulsive-like male mice were singly housed and provided with a pre-weighed roll of cotton (Mountain Mist cotton batting, Troy, Inc., Chicago, Ill.) in the cage-top food hopper. The cotton roll was weighed after 1, 2, 3, 4, 5 and 24 hours. Nesting behavior was quantified by the grams of cotton used during each testing period.
Statistical analysis was performed in Graphpad Prism (GraphPad Software, Inc) and Statistical Analysis System Software (Version 9.4, Cary, N.C.). Nest-building (grams of cotton), marble burying (number of marbles at least ⅔ buried) and open field measures (time in center and total distance travelled) were expressed as the mean±standard error of the mean (SEM). The nest building data were shown as grams of cotton used, whereas the statistical analysis was conducted on the square-root transformed nesting scores in order to normalize the data (Bult & Lynch, 2000, Behavior Genetics 30:193-206). Nesting scores at different time points, marble burying and open field results were analyzed by one-way analysis of variance (ANOVA), whereas overall drug and drug by time interaction effect between 0-5 hours was done by two-way analysis of variance (ANOVA). Pairwise comparisons for significant differences were tested by the post-hoc Bonferroni multiple comparison test. A probability level of p<0.05 was used as an index of statistical significance in all cases.

[2] = test system: compulsive-like BIG male mice; test: open field (OF) test, anxiety-like and locomotor behavior; assay type: in vivo, Mus musculus
Procedure: as §1, §2
Acute Study: Male BIG mice were divided into four treatment groups comprising vehicle (sterile saline), 2 mg/kg, 4 mg/kg and 6 mg/kg. Animals in each group (n=12 per group) were tested for nesting on day 1, MB on day 3 and open field (OF) on day 5. On the first day of testing animals randomly received dFBr or vehicle subcutaneously and in subsequent tests received the same dose. Days 2 and 4 were employed to avoid any residual effects of dFBr from previous administration. […]
Chronic Study; Since the foundation of the animal model was established through effective reversal of compulsive-like NB and MB behaviors by chronic fluoxetine treatment, a chronic regimen was also conducted to establish the sustained and long term effects of dFBr on NB and MB. […] NB, MB and OF behaviors were assessed in the final week (weeks 5) after dFBr administration (NB after 1, 2, 3, 4, 5 and 24 h, and MB after 2 h of drug injection). […]
Anxiety-like behaviors were determined through the open field test. […] The animals were placed in the center of the open field, and their behavior was video taped for 3 min and analyzed with the aid of ANYMAZE™ video tracking software (Stoelting Co., Ill.). The time spent in the center (anxiety-like measure) and total distance travelled (locomotion) in the entire open field were measured. […]
Statistical analysis was performed in Graphpad Prism (GraphPad Software, Inc) and Statistical Analysis System Software (Version 9.4, Cary, N.C.). Nest-building (grams of cotton), marble burying (number of marbles at least ⅔ buried) and open field measures (time in center and total distance travelled) were expressed as the mean±standard error of the mean (SEM). […] Nesting scores at different time points, marble burying and open field results were analyzed by one-way analysis of variance (ANOVA), whereas overall drug and drug by time interaction effect between 0-5 hours was done by two-way analysis of variance (ANOVA). […]

[3] = target: high sensitivity (HS) α4β2 receptors (Homo sapiens, UniProt P17787+P43681); conditions: cited from earlier work
[4] = acute, 0, 2, 4, 6 mg/kg s.c., 2 h after administration
[5] = chronic regimen (day 32), 0, 2, 4, 6 mg/kg

high sensitivity (HS) α4β2 receptors, sequence (P43681 29-627 limits assumed): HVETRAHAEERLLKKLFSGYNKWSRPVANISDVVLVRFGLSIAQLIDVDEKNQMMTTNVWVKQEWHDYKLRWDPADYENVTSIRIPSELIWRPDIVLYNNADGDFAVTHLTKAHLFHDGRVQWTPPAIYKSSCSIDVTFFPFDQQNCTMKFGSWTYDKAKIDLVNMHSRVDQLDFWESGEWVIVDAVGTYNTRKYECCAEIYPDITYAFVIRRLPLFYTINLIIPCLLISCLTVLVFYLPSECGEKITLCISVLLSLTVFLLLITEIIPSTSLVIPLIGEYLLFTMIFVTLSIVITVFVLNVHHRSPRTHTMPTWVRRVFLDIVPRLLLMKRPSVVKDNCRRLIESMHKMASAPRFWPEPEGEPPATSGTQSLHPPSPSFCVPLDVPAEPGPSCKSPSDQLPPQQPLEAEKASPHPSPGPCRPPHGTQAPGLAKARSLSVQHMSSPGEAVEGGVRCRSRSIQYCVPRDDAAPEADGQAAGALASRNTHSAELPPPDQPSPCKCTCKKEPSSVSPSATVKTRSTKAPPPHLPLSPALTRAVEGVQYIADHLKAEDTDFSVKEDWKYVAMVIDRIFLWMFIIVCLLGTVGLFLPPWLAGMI
high sensitivity (HS) α4β2 receptors, sequence (P17787 26-502): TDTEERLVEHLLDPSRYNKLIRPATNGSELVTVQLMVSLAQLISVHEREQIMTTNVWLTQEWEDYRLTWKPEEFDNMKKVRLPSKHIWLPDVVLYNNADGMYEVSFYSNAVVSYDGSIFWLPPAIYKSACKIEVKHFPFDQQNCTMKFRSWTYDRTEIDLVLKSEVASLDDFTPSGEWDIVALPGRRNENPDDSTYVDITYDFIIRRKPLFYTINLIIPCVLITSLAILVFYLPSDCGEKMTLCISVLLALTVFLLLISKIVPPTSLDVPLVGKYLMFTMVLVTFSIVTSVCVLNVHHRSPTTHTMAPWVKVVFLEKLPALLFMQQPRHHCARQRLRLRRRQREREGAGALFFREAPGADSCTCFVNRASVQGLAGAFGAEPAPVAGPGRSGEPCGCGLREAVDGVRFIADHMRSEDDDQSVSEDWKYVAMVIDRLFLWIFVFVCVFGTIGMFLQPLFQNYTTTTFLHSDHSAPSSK

C=CC(C)(C)c1[nH]c2cc(Br)ccc2c1CCNC [dFBr, 2-[6-bromo-2-(2-methylbut-3-en-2-yl)-1H-indol-3-yl]-N-methylethanamine]
nesting (cotton used) vs control (saline) ([1]; acute, 2 mg/kg s.c., 0-1 h): no significant attenuation of nesting
overall nesting scores vs control (saline) ([1]; acute, 2 mg/kg s.c.): significantly below the control group
nesting (cotton used) vs control (saline) ([1]; acute, 2 mg/kg s.c., 1-2 h): no significant effect
nesting (cotton used) vs control (saline) ([1]; acute, 2 mg/kg s.c., 2-3 h): No significant difference
nesting (cotton used) vs control (saline) ([1]; acute, 2 mg/kg s.c., 3-4 h): not significantly different
nesting (cotton used) vs control (saline) ([1]; acute, 2 mg/kg s.c., 4-5 h): not significantly different
nesting (cotton used) vs control (saline) ([1]; acute, 2 mg/kg s.c., 5-24 h): suppressed the nesting score significantly
fractional nesting score (nesting score divided by average of vehicle group) ([1]; acute, 2 mg/kg s.c., first 5 hours): ~1
nesting (cotton used) vs control (saline) ([1]; acute, 2 mg/kg s.c., overall 0-5 h): did not attenuate nesting
time of greatest suppression of nesting (fractional nesting score) ([1]; acute, 4 mg/kg s.c.): 1 to 2 h
nesting (cotton used) vs control (saline) ([1]; acute, 4 mg/kg s.c., 0-1 h): no significant attenuation of nesting
overall nesting scores vs control (saline) ([1]; acute, 4 mg/kg s.c.): significantly below the control group
nesting (cotton used) vs control (saline) ([1]; acute, 4 mg/kg s.c., 1-2 h): significantly attenuated nesting
nesting (cotton used) vs control (saline) ([1]; acute, 4 mg/kg s.c., 2-3 h): No significant difference
nesting (cotton used) vs control (saline) ([1]; acute, 4 mg/kg s.c., 3-4 h): significantly reduced
nesting (cotton used) vs control (saline) ([1]; acute, 4 mg/kg s.c., 4-5 h): not significantly different
nesting (cotton used) vs control (saline) ([1]; acute, 4 mg/kg s.c., 5-24 h): suppressed the nesting score significantly
nesting (cotton used) vs control (saline) ([1]; acute, 4 mg/kg s.c., overall 0-5 h): significantly reduced
time of greatest suppression of nesting (fractional nesting score) ([1]; acute, 6 mg/kg s.c.): 1 to 2 h
nesting (cotton used) vs control (saline) ([1]; acute, 6 mg/kg s.c., 0-1 h): no significant attenuation of nesting
overall nesting scores vs control (saline) ([1]; acute, 6 mg/kg s.c.): significantly below the control group
nesting (cotton used) vs control (saline) ([1]; acute, 6 mg/kg s.c., 1-2 h): significantly attenuated nesting
nesting (cotton used) vs control (saline) ([1]; acute, 6 mg/kg s.c., 2-3 h): significantly reduced
nesting (cotton used) vs control (saline) ([1]; acute, 6 mg/kg s.c., 3-4 h): significantly reduced
nesting (cotton used) vs control (saline) ([1]; acute, 6 mg/kg s.c., 4-5 h): not significantly different
nesting (cotton used) vs control (saline) ([1]; acute, 6 mg/kg s.c., 5-24 h): suppressed the nesting score significantly
nesting (cotton used) vs control (saline) ([1]; acute, 6 mg/kg s.c., overall 0-5 h): significantly reduced
suppression of NB vs control ([1]; 2 mg/kg, 1-2 h): main attenuating effects
suppression of NB vs control ([1]; 4 mg/kg, 0-1 h): most effective doses
suppression of NB vs control ([1]; 6 mg/kg, 0-1 h): most effective doses
suppression of NB vs control ([1]; 6 mg/kg, 1-2 h): main attenuating effects
overall nesting scores vs control ([1]; 2 mg/kg): significantly below the control group
overall nesting scores vs control ([1]; 4 mg/kg): significantly below the control group
overall nesting scores vs control ([1]; 6 mg/kg): significantly below the control group
effect on NB (ANOVA over dose groups) ([1]; 2-3 h): No significant effect
effect on NB (ANOVA over dose groups) ([1]; 3-4 h): No significant effect
effect on NB (ANOVA over dose groups) ([1]; 4-5 h): No significant effect
time spent in center of the OF (anxiety-like) [2, 4]: No significant differences
total distance traveled (locomotor activity) [2, 4]: not different among the treatment groups
time in center [2, 5]: did not differ among treatment groups
total distance [2, 5]: did not differ among treatment groups
potentiation of acetylcholine-induced whole cell responses [3]: 370%
EC50 ([3]; read-out: EC50 of potentiation): 40 µM
